Results from patent US20020115723A1, “Cysteine derivatives” (AJINOMOTO CO., INC., priority 1998, published 2002).

Legend:
NF-κB = assay: Test on the function of inhibiting the activation of NF-κB induced by ultraviolet rays (gel shift assay); type: cell-based, human; details: for Inhibition ratio (%) of NF-κB activation: human epidermal cells, UVB 50 mJ/cm^2
Experimental: Test on the Function of Inhibiting the Activation of NF-κB Induced by Ultraviolet Rays.
After 18 hours had elapsed, the culture medium was substituted by a phenol red-free medium. The cells were exposed to ultraviolet rays (UVB: 50 mJ/cm^2) from an ultraviolet irradiator “Dermaray M-DMR-80” (ex Toshiba Medical Supply Co., Ltd.). After 4 to 5 hours had elapsed, the cells were collected, and the nucleoprotein was extracted therefrom in a manner known per se in the art. From the resulting nucleoprotein, the activated NF-κB was detected in accordance with the gel shift assay. The amount of the NF-κB was determined by measuring the radioactive value of the NF-κB band with the use of a bioimaging analyzer “BAS 2000” (ex Fuji Film Co., Ltd.).
The inhibition ratio of the activation of the NF-κB of the test compounds was calculated from the below-described formula (1).
Inhibition ratio of NF-κB activation (%)={1−(A1-A3)/(A2-A3)}×100 (1)
A1: radioactive value of the NF-κB upon addition of a test compound
A2: radioactive value of NF-κB when a test compound is not added
A3: radioactive value of NF-κB when a test compound is not added and is not exposed to ultraviolet rays.

Hairless mice (SKH-1) = assay: Test on inhibiting function of wrinkles formation induced by ultraviolet rays (No. 2), Components (A) and (B) in combination; type: in vivo, mouse; parameters: scale not given here
Experimental: Hairless mice (SKH-1, female, 5-6 weeks old) were exposed to ultraviolet rays (UVB) three times/week (Monday, Wednesday and Friday) for 5 weeks, each at 50 to 100 mJ/cm^2 by using the above-described “Dermaray M-DMR-80” (ex Toshiba Medical Supply Co., Ltd.). The test compound (N,N′-diacetyl-L-cystine dimethyl ester) was dissolved in a mixed solvent of propylene glycol, ethanol and water, and was applied to the back portion of each of the mice in an amount of 100 μl, 30 to 60 minutes before exposure to ultraviolet rays, just after the completion of the exposure, and on the days free from exposure to ultraviolet rays (Sunday, Tuesday, Thursday and Saturday). From two weeks after the exposure had started, the wrinkles formed on the back portion of each mouse were evaluated once a week based on the below-described standards, and they were indicated as scores. In addition, the function of the inventive compound for inhibiting wrinkle formation induced by ultraviolet rays was judged based on the below-described judging standards.
Test on Inhibiting Function of Wrinkles Formation Induced by Ultraviolet Rays (No. 2)
Function of suppressing ultraviolet ray-induced wrinkles formation by the synergistic effects when Components (A) and (B) were used in combination, was judged in a similar manner to Test Example 2. Fifteen to twenty mice were divided into 4 groups, that is, a 1st group to which a mixed solvent of propylene glycol, ethanol and water was to be applied, a 2nd group to which a solution of only Component (A) dissolved in the above-described solvent was to be applied, a 3rd group to which a solution of only Component (B) dissolved in the above-described solvent was to be applied, and a 4th group to which a solution of both Components (A) and (B) dissolved in the above-described solvent was to be applied. An average score of each group was determined.

AP-1 = assay: Test on the function of inhibiting the AP-1 activation induced by ultraviolet rays (gel shift assay); type: cell-based, human; details: single compound
Experimental: Test on the Function of Inhibiting the AP-1 Activation Induced by Ultraviolet Rays.
In a similar manner to Test Example 1, a nucleoprotein was obtained. Then, the activated AP-1 was detected by the gel shift assay. The radioactive value of the AP-1 band was measured as in Test Example 1, whereby the amount of the AP-1 was determined. The AP-1 activation inhibiting ratio of the test compounds was calculated by the below-described equation (2). The results of the test compounds according to the present invention are shown below in Table 4a, while those of the comparative compounds are shown below in Table 4b.
AP-1 activation inhibiting ratio (%)={1−(B1-B3)/(B2-B3)}×100 (2)
B1: radioactive value of the AP-1 band upon addition of a test compound.
B2: radioactive value of the AP-1 band when a test compound is not added.
B3: radioactive value of the AP-1 band when a test compound is not added and is not exposed to ultraviolet rays.

| SMILES | Inhibition ratio (%) of NF-κB activation (NF-κB; addition concentration 0.01 mM) | Inhibition ratio (%) of NF-κB activation (NF-κB; addition concentration 0.1 mM) | other results |
| --- | --- | --- | --- |
| COC(=O)[C@H](CCSSCC[C@H](NC(C)=O)C(=O)OC)NC(C)=O (racemic) [N,N′-diacetyl -DL-homocystine dimethyl ester] | 10% | 46% |  |
| Cc1c(C)c2c(c(C)c1O)CCC(C)(CCCC(C)CCCC(C)CCCC(C)C)O2 (racemic) [dl-α-tocopherol] |  |  | Wrinkle score (group average) (Hairless mice (SKH-1); 5% alone, 2nd week): 2.0; Wrinkle score (group average) (Hairless mice (SKH-1); 5% alone, 3rd week): 3.0; Wrinkle score (group average) (Hairless mice (SKH-1); 5% alone, 4th week): 2.5; Wrinkle score (group average) (Hairless mice (SKH-1); 5% alone, 5th week): 3.5; AP-1 activation Inhibiting ratio (%) (AP-1; 10 μM): 5%; AP-1 activation Inhibiting ratio (%) (AP-1; 100 μM): −1% |
| CCCCC(CC)COC(=O)C=Cc1ccc(OC)cc1 (stereo not shown) [2-ethylhexyl p-methoxycinnamate] |  |  | Wrinkle score (group average) (Hairless mice (SKH-1); 3% alone, 2nd week): 0.0; Wrinkle score (group average) (Hairless mice (SKH-1); 3% alone, 3rd week): 0.5; Wrinkle score (group average) (Hairless mice (SKH-1); 3% alone, 4th week): 1.5; Wrinkle score (group average) (Hairless mice (SKH-1); 3% alone, 5th week): 0.5; AP-1 activation Inhibiting ratio (%) (AP-1; 10 μM): −20%; AP-1 activation Inhibiting ratio (%) (AP-1; 100 μM): 11% |
| COc1ccc(C(=O)CC(=O)c2ccc(C(C)(C)C)cc2)cc1 [4-tert-butyl-4′-methoxybenzoylmethane] |  |  | AP-1 activation Inhibiting ratio (%) (AP-1; 1 μM): −14%; AP-1 activation Inhibiting ratio (%) (AP-1; 10 μM): 17% |
| O=C1O[C@H]([C@@H](O)CO)C(O)=C1O [L (+) ascorbic acid] |  |  | Wrinkle score (group average) (Hairless mice (SKH-1); 5% alone, 2nd week): 1.0; Wrinkle score (group average) (Hairless mice (SKH-1); 5% alone, 3rd week): 2.0; Wrinkle score (group average) (Hairless mice (SKH-1); 5% alone, 4th week): 4.0; Wrinkle score (group average) (Hairless mice (SKH-1); 5% alone, 5th week): 4.0; AP-1 activation Inhibiting ratio (%) (AP-1; 0.1 mM): 1%; AP-1 activation Inhibiting ratio (%) (AP-1; 1 mM): 0% |
| CCOC(=O)[C@@H](N)CSSC[C@H](N)C(=O)OCC [L-cystine diethyl ester] |  | 50% | Inhibition ratio (%) of NF-κB activation (NF-κB; addition concentration 0.5 mM): >100% |
| CC(=O)N[C@@H](CSSC[C@H](NC(C)=O)C(=O)O)C(=O)O [N,N′ -diacetyl-L-cystine, N,N′-diacetyl-L-cystine, reference compound] |  |  | Inhibition ratio (%) of NF-κB activation (NF-κB; addition concentration 10 mM): 48%; Inhibition ratio (%) of NF-κB activation (NF-κB; addition concentration 30 mM): 67% |
| CCCC(=O)N[C@@H](CSSC[C@H](NC(=O)CCC)C(N)=O)C(N)=O [N,N′-di(n-butyryl)-L-cystine diamide] | 45% | 11% |  |
| CCCC(=O)N[C@@H](CSSC[C@H](NC(=O)CCC)C(=O)OC)C(=O)OC [N,N′-di(n-butyryl)-L-cystine dimethyl ester] | 52% | 79% |  |
| CCCCCCCCCC(=O)N[C@@H](CSSC[C@H](NC(=O)CCCCCCCCC)C(=O)OC)C(=O)OC [N,N′-di(n-decanoyl)-L-cystine dimethyl ester] | 56% | 68% |  |
| CCCCCCC(=O)N[C@@H](CSSC[C@H](NC(=O)CCCCCC)C(=O)OC)C(=O)OC [N,N′-di(n-heptanoyl)-L-cystine dimethyl ester] | 25% | 103% |  |
| CCCCCC(=O)N[C@@H](CSSC[C@H](NC(=O)CCCCC)C(=O)OC)C(=O)OC [N,N′-di(n-hexanoyl)-L-cystine dimethyl ester] | 43% | 77% |  |
| CCCCCCCC(=O)N[C@@H](CSSC[C@H](NC(=O)CCCCCCC)C(=O)OC)C(=O)OC [N,N′-di(n-octanoyl)-L-cystine dimethyl ester] | 33% | 91% |  |
| CCC(=O)N[C@@H](CSSC[C@H](NC(=O)CC)C(=O)OC)C(=O)OC [N,N′-di(n-propionyl)-L-cystine dimethyl ester] | 17% | 54% |  |
| CCCCC(=O)N[C@@H](CSSC[C@H](NC(=O)CCCC)C(N)=O)C(N)=O [N,N′-di(n-valeryl)-L-cystine diamide] | 8% | 53% |  |
| CCCCC(=O)N[C@@H](CSSC[C@H](NC(=O)CCCC)C(=O)OC)C(=O)OC [N,N′-di(n-valeryl)-L-cystine dimethyl ester] | 18% | 64% |  |
| CCOC(=O)[C@H](CSSC[C@H](NC(C)=O)C(=O)OCC)NC(C)=O [N,N′-diacetyl-L-cystine diethyl ester] | 37% | 107% |  |
| CC(=O)N[C@@H](CSSC[C@H](NC(C)=O)C(=O)OC(C)C)C(=O)OC(C)C [N,N′-diacetyl-L-cystine diisopropyl ester] | 19% | 48% |  |
| CCCCCCCCCCCC(=O)N[C@@H](CSSC[C@H](NC(=O)CCCCCCCCCCC)C(=O)OC)C(=O)OC [N,N′-dilauroyl-L-cystine dimethyl ester] | 52% | 59% |  |
| COC(=O)[C@H](CSC(C)=O)NC(C)=O [N,S-diacetyl-L-cystine methyl ester] | 20% | 31% |  |
| CCOC(=O)[C@H](CSSC[C@H](N)C(=O)O)NC(C)=O [N-acetyl-L-cystine ethyl ester] | 31% | 74% |  |
| CC(=O)N[C@@H](CSSC[C@H](N)C(=O)O)C(=O)OC(C)C [N-acetyl-L-cystine isopropylester] | 21% | 82% |  |
| COC(=O)[C@H](CSSC[C@H](N)C(=O)O)NC(C)=O [N-acetyl-L-cystine methyl ester] | 28% | 95% |  |
| CCCCCCCCCCCC(=O)N[C@@H](CSSC[C@H](N)C(=O)O)C(=O)OC [N-lauroyl-L-cystine methyl ester] | 36% | 43% |  |
| CCCCCCCCCCCC(=O)N[C@@H](CSSC[C@H](N)C(=O)O)C(=O)O [N-lauroyl-L-cystine] |  | 14% | Inhibition ratio (%) of NF-κB activation (NF-κB; addition concentration 0.5 mM): 86% |
| O=C(O)c1ccccc1O [Salicylic acid] |  |  | Wrinkle score (group average) (Hairless mice (SKH-1); 5% alone, 2nd week): 2.0; Wrinkle score (group average) (Hairless mice (SKH-1); 5% alone, 3rd week): 1.5; Wrinkle score (group average) (Hairless mice (SKH-1); 5% alone, 4th week): 1.5; Wrinkle score (group average) (Hairless mice (SKH-1); 5% alone, 5th week): 2.5 |
| CC1(C)[C@@H](O)CC[C@]2(C)[C@H]3C(=O)C=C4[C@@H]5C[C@@](C)(C(=O)O)CC[C@]5(C)CC[C@@]4(C)[C@]3(C)CC[C@@H]12 [glycyrrhetinic acid] |  |  | AP-1 activation Inhibiting ratio (%) (AP-1; 10 μM): 2%; AP-1 activation Inhibiting ratio (%) (AP-1; 100 μM): −104% |
| CC1(C)[C@@H](O[C@H]2O[C@H](C(=O)O)[C@@H](O)[C@H](O)[C@H]2O[C@@H]2O[C@H](C(=O)O)[C@@H](O)[C@H](O)[C@H]2O)CC[C@]2(C)[C@H]3C(=O)C=C4[C@@H]5C[C@@](C)(C(=O)O)CC[C@]5(C)CC[C@@]4(C)[C@]3(C)CC[C@@H]12 [glycyrrhizic acid] |  |  | AP-1 activation Inhibiting ratio (%) (AP-1; 0.1 mM): 3%; AP-1 activation Inhibiting ratio (%) (AP-1; 1 mM): −70% |
| S=C(S)N1CCCC1 [pyrrolidine dithiocarbamate, reference compound] | 9% |  | Inhibition ratio (%) of NF-κB activation (NF-κB; addition concentration 0.005 mM): −2%; NF-κB activation inhibiting function (in words) (NF-κB; summary of Tables 2a and 2b): did not exhibit the NF-κKB activation inhibiting function |
